Assay results published in ChEMBL document CHEMBL1122560, “Adrenal medulla imaging agents: a structure-distribution relationship study of radiolabeled aralkylguanidines” (J Med Chem, 1984).

Assay: Ratio of the concentration levels determined for the adrenal medulla to the liver after 72 hr; [Adrenal Medulla] / [liver]
Format: ADME, tissue-based

| Compound | Ratio |
| --- | --- |
| N=C(N)NCc1ccc(I)c(I)c1 | 115 |
| N=C(N)Nc1cccc(I)c1 | 45 |
| N=C(N)NCc1ccccc1I | 130 |
| N=C(N)NCc1ccccc1 | 2700 |
| N=C(N)NCc1cc(I)cc(I)c1 | 5.2 |
| N=C(N)NCCc1cccc(I)c1 | 190 |
| N=C(N)NCCc1ccc(I)cc1 | 200 |
| N=C(N)NCc1ccc(I)cc1 | 545 |
| CC(N=C(N)N)c1cccc(I)c1 (racemic) | 430 |
| CC(N=C(N)N)c1ccc(I)cc1 (racemic) | 190 |
| CC(N=C(N)N)c1cccc(I)c1 (single isomer, unassigned; (-)) | 300 |
| CC(N=C(N)N)c1cccc(I)c1 (stereo in doubt; 8b(+)) | 390 |
| N=C(N)NCCN1CCCCCCC1 [GUANETHIDINE] | 70 |
| N=C(N)N [GUANIDINE] | 1.4 |
| N=C(N)NCc1cccc(I)c1 [IOBENGUANE] | 720 |
